# Target: human 5-HT2C receptor (Homo sapiens, UniProt P28335, I156V/I160V/N158S)
# Assay: cell-based
# Sequence of human 5-HT2C receptor (P28335 33-458 I156V/N158S/I160V limits assumed): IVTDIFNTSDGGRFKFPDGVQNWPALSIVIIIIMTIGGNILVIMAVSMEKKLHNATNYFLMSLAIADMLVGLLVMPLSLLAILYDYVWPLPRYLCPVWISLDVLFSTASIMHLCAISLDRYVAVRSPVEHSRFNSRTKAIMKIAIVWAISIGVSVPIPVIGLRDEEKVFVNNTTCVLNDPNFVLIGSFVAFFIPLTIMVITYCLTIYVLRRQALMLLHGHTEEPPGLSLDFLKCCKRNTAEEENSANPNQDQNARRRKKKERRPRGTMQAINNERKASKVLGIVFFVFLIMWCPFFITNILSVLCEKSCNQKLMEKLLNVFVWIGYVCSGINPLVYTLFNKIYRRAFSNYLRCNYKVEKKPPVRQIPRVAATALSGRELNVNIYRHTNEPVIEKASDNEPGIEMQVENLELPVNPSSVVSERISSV
row,SMILES,EC50
1,CC1CCN(C(=O)C2CN(c3c4c(nc5ccnn35)CCNCC4)C2)CC1 [Example 31.228],42 nM
2,O=C(C1CN(c2c3c(nc4ccnn24)CCNCC3)C1)N1CCC(OCc2ccccc2)CC1 [Example 31.199],48 nM
3,COC[C@H]1CCN1c1c2c(nc3ccnn13)CCNCC2 [Example 8.1],75 nM
4,C#CC(C)(C)NC(=O)C1CN(c2c3c(nc4ccnn24)CCNCC3)C1 [Example 37.91],301 nM
5,O=C(C1CN(c2c3c(nc4ccnn24)CCNCC3)C1)N1CCCC(F)C1 (stereo not shown) [Example 31.193],64 nM
6,FC(F)(F)c1ccccc1OC1CN(c2c3c(nc4ccnn24)CCNCC3)C1 [Example 35.31],129 nM
7,CCCCN1CCCN(C(=O)C2CN(c3c4c(nc5ccnn35)CCN(C)CC4)C2)CC1 [Example 36.36],256 nM
8,CC(C)CC(C)NC(=O)C1CN(c2c3c(nc4ccnn24)CCNCC3)C1 (stereo not shown) [Example 37.99],92 nM
9,FC(F)(F)c1cccc(N2CCN(c3c4c(nc5ccnn35)CCNCC4)CC2)c1 [Example 7.3],484 nM
10,Cc1cnn2c(N3CC(C(=O)N4CCc5ccc(C(F)(F)F)cc54)C3)c3c(nc12)CCNCC3 [Example 31.246],266 nM
11,CN(Cc1ccc(C#N)cc1)C(=O)C1CN(c2c3c(nc4c(Br)cnn24)CCNCC3)C1 [Example 31.139],16 nM
12,O=C(N[C@H]1C[C@@H]1c1ccccc1)C1CN(c2c3c(nc4ccnn24)CCNCC3)C1 [Example 31.28],314 nM
13,O=C(C1CN(c2c3c(nc4c(Br)cnn24)CCNCC3)C1)N1CCC2(CCCCC2)CC1 [Example 31.132],254 nM
14,Cc1cnn2c(N3CC(C(=O)N4CCC(C(F)(F)F)CC4)C3)c3c(nc12)CCNCC3 [Example 31.237],11 nM
15,c1cc2nc3c(c(N4CC(OCC5CC5)C4)n2n1)CCNCC3 [Example 20.3],469 nM
16,COc1cccc(N(C)C(=O)C2CN(c3c4c(nc5ccnn35)CCNCC4)C2)c1 [Example 31.55],600 nM
17,Cc1cnn2c(N3CC(C(=O)N4CCc5cc(F)ccc54)C3)c3c(nc12)CCNCC3 [Example 31.245],26 nM
18,CC(C)c1ccc(OC2CN(c3c4c(nc5ccnn35)CCNCC4)C2)cc1 [Example 35.44],256 nM
19,O=C(NCCC1CCCC1)C1CN(c2c3c(nc4ccnn24)CCNCC3)C1 [Example 37.62],10 nM
20,O=C(C1CN(c2c3c(nc4ccnn24)CCNCC3)C1)N1CCc2cccc(Br)c2C1 [Example 31.207],43 nM
21,COc1cccc(COC2CN(c3c4c(nc5ccnn35)CCNCC4)C2)c1 [Example 20.13],347 nM
22,CC(C)CN1CCN(C(=O)C2CN(c3c4c(nc5ccnn35)CCN(C)CC4)C2)CC1 [Example 36.17],88 nM
23,CN1CCc2nc3ccnn3c(N3CC(C(=O)NC4CCC(C)(C)CC4)C3)c2CC1 [Example 36.39],911 nM
24,O=C(C1CN(c2c3c(nc4ccnn24)CCNCC3)C1)N1CCCC2CCCCC21 (stereo not shown) [Example 31.127],1280 nM
25,O=C(C1CN(c2c3c(nc4ccnn24)CCNCC3)C1)N1CCC(c2cc(Cl)cc(Cl)c2)CC1 [Example 31.214],471 nM
26,COC1CN(c2c3c(nc4ccnn24)CCNCC3)C1 [Example 16.1],82 nM
27,Cc1cc(OCC2CN(c3c4c(nc5ccnn35)CCNCC4)C2)ccc1F [Example 15.4],25 nM

row,SMILES,EC50
1,OC1CN(c2c3c(nc4ccnn24)CCNCC3)C1 [Example 1.2],127 nM
2,CC(C)(C)CCNC(=O)C1CN(c2c3c(nc4ccnn24)CCNCC3)C1 [Example 37.83],51 nM
3,CN(Cc1ccc(C(F)(F)F)cc1)C(=O)C1CN(c2c3c(nc4ccnn24)CCNCC3)C1 [Example 31.87],36 nM
4,"CCc1cnn2c(N3CC(C(=O)N(C)C)C3)c3c(nc12)CCNCC3 [Example 26, 1-(3-Ethyl-6,7,8,9-tetrahydro-5H-1,4,7,10a-tetraaza-cyclohepta[f]inden-10-yl)-azetidine-3-carboxylic acid dimethylamide]",10 nM
5,CC1(C)CCN(C(=O)C2CN(c3c4c(nc5ccnn35)CCNCC4)C2)CC1 [Example 31.47],21 nM
6,CCC1CCC(C)N(C(=O)C2CN(c3c4c(nc5ccnn35)CCNCC4)C2)C1 (stereo not shown) [Example 31.184],287 nM
7,CN1CCc2nc3ccnn3c(N3CC(C(=O)N4CCN(C(=O)C5CC5)CC4)C3)c2CC1 [Example 36.43],264 nM
8,Cc1cccc2c1N(C(=O)C1CN(c3c4c(nc5ccnn35)CCNCC4)C1)CC2 [Example 31.174],116 nM
9,"c1ccc2oc(C3CN(c4c5c(nc6ccnn46)CCNCC5)C3)nc2c1 [Example 14, 10-(3-Benzooxazol-2-yl-azetidin-1-yl)-6,7,8,9-tetrahydro-5H-1,4,7,10a-tetraaza-cyclohepta[f]indene]",678 nM
10,O=C(C1CN(c2c3c(nc4ccnn24)CCNCC3)C1)N1CCC(N2CCCC2)CC1 [Example 37.5],2 nM
11,C[C@@H](c1ccccc1)N(C)C(=O)C1CN(c2c3c(nc4ccnn24)CCNCC3)C1 [Example 31.91],2010 nM
12,CC1(C)CN(C(=O)C2CN(c3c4c(nc5ccnn35)CCNCC4)C2)Cc2ccccc21 [Example 31.177],623 nM
13,CCN1CCN(C(=O)C2CN(c3c4c(nc5ccnn35)CCNCC4)C2)CC1 [Example 37.1],3 nM
14,Cc1ccc(F)c(OCC2CN(c3c4c(nc5ccnn35)CCNCC4)C2)c1 [Example 15.5],7 nM
15,C#CCNC(=O)C1CN(c2c3c(nc4ccnn24)CCNCC3)C1 [Example 37.85],94 nM
16,Cc1cnn2c(N3CC(C(=O)N4CCC(Oc5ccccc5)CC4)C3)c3c(nc12)CCNCC3 [Example 31.244],62 nM
17,O=C(C1CCCN(c2c3c(nc4ccnn24)CCNCC3)C1)N1CCC(C2CCCCC2)CC1 (stereo not shown) [Example 1.58],4710 nM
18,CC1(C)CCN(C(=O)C2CN(c3c4c(nc5c(Br)cnn35)CCNCC4)C2)CC1 [Example 31.138],71 nM
19,"C#CC1CCN(C(=O)C2CN(c3c4c(nc5ccnn35)CCNCC4)C2)C1 (stereo not shown) [Example 38, (3-Ethynyl-pyrrolidin-1-yl)-[1-(6,7,8,9-tetrahydro-5H-1,4,7,10a-tetraaza-cyclohepta[f]inden-10-yl)-azetidin-3-yl]-methanone]",6 nM
20,"CC1CNCCc2c1nc1ccnn1c2N1CCCCC1 (stereo not shown) [Example 3, 5-Methyl-10-piperidin-1-yl-6,7,8,9-tetrahydro-5H-1,4,7,10a-tetraaza-cyclohepta[f]indene]",1810 nM
21,O=C(C1CN(c2c3c(nc4ccnn24)CCNCC3)C1)N1CCC2(CCCCC2)CC1 [Example 31.35],50 nM
22,Cc1ccc(OC2CN(c3c4c(nc5ccnn35)CCNCC4)C2)cn1 [Example 35.52],147 nM
23,CN(Cc1ccc(F)cc1)C(=O)C1CN(c2c3c(nc4ccnn24)CCNCC3)C1 [Example 31.96],26 nM
24,Cc1ccccc1OC1CN(c2c3c(nc4ccnn24)CCNCC3)C1 [Example 35.5],112 nM
25,O=C(NCC1CC1)C1CN(c2c3c(nc4ccnn24)CCNCC3)C1 [Example 37.75],137 nM
26,CN(Cc1cc(Cl)cc(Cl)c1)C(=O)C1CN(c2c3c(nc4ccnn24)CCNCC3)C1 [Example 31.165],72 nM
27,CN1CCc2nc3ccnn3c(N3CC(C(=O)N4CCC(F)CC4)C3)c2CC1 [Example 36.29],279 nM

row,SMILES,EC50
1,Fc1cc(OCC2CN(c3c4c(nc5ccnn35)CCNCC4)C2)ccc1Cl [Example 15.13],28 nM
2,CC1Cc2ccccc2N1C(=O)C1CN(c2c3c(nc4ccnn24)CCNCC3)C1 (stereo not shown) [Example 31.234],380 nM
3,Cc1ccc(C2CCN(C(=O)C3CN(c4c5c(nc6ccnn46)CCNCC5)C3)CC2)cc1 [Example 31.144],66 nM
4,Cc1cccc(OC2CN(c3c4c(nc5ccnn35)CCNCC4)C2)c1 [Example 35.51],126 nM
5,CN(Cc1ccc(Br)cc1)C(=O)C1CN(c2c3c(nc4ccnn24)CCNCC3)C1 [Example 31.80],30 nM
6,O=C(NC1CCC1)C1CN(c2c3c(nc4ccnn24)CCNCC3)C1 [Example 37.92],161 nM
7,COc1ccc2c(c1)CCN2C(=O)C1CN(c2c3c(nc4ccnn24)CCNCC3)C1 [Example 31.218],40 nM
8,COc1ccc(OCC2CN(c3c4c(nc5ccnn35)CCNCC4)C2)c(Cl)c1 [Example 15.16],3 nM
9,Cc1ccc(OCC2CN(c3c4c(nc5ccnn35)CCNCC4)C2)cc1 [Example 15.18],140 nM
10,O=C(C1CN(c2c3c(nc4ccnn24)CCNCC3)C1)N1CCC2(CCCCC2)C1 [Example 31.48],38 nM
11,C[C@H](NC(=O)C1CN(c2c3c(nc4ccnn24)CCNCC3)C1)C1CCCCC1 [Example 31.189],315 nM
12,CC(C)C(NC(=O)C1CN(c2c3c(nc4ccnn24)CCNCC3)C1)C(F)(F)F (stereo not shown) [Example 37.104],106 nM
13,COc1ccc2c(c1)CCN2C(=O)C1CN(c2c3c(nc4c(C)cnn24)CCNCC3)C1 [Example 31.247],28 nM
14,CN1CCc2nc3ccnn3c(N3CC(C(=O)NCC4CCN(C)CC4)C3)c2CC1 [Example 36.3],108 nM
15,CC1CN(C(=O)C2CN(c3c4c(nc5ccnn35)CCN(C)CC4)C2)CC(C)N1C (stereo not shown) [Example 36.7],106 nM
16,CN(C(=O)C1CN(c2c3c(nc4ccnn24)CCNCC3)C1)C1CC1 [Example 31.10],1670 nM
17,COc1ccc(OC2CN(c3c4c(nc5ccnn35)CCNCC4)C2)cc1 [Example 1.10],96 nM
18,CCNC(=O)C1CN(c2c3c(nc4ccnn24)CCNCC3)C1 [Example 37.95],742 nM
19,O=C(C1CN(c2c3c(nc4ccnn24)CCNCC3)C1)N1CCc2ccc(Br)cc2C1 [Example 31.209],95 nM
20,CN1CCc2nc3ccnn3c(N3CC(C(=O)N4CCCNCC4)C3)c2CC1 [Example 36.59],173 nM
21,O=C(C1CN(c2c3c(nc4ccnn24)CCNCC3)C1)N1CCC(c2ccc(F)cc2F)CC1 [Example 31.114],38 nM
22,COc1ccc(OC2CN(c3c4c(nc5ccnn35)CCNCC4)C2)c(Cl)c1 [Example 35.19],87 nM
23,CNC1CCN(C(=O)C2CN(c3c4c(nc5ccnn35)CCNCC4)C2)CC1 [Example 37.14],1 nM
24,O=C(C1CN(c2c3c(nc4ccnn24)CCNCC3)C1)N1CCCC(c2cccc(F)c2)C1 (stereo not shown) [Example 31.215],155 nM
25,c1csc(COC2CN(c3c4c(nc5ccnn35)CCNCC4)C2)n1 [Example 20.14],23 nM
